The results in this text go back to BindingDB's records for doi:10.1021/acs.jmedchem.5b01153 (University of Illinois At Chicago, 2016).

Each structure is given as a SMILES string.

Experiment [1] concerns the target T1, 5-hydroxytryptamine receptor 2C (Homo sapiens, UniProt P28335).
T1 sequence (P28335 whole entry): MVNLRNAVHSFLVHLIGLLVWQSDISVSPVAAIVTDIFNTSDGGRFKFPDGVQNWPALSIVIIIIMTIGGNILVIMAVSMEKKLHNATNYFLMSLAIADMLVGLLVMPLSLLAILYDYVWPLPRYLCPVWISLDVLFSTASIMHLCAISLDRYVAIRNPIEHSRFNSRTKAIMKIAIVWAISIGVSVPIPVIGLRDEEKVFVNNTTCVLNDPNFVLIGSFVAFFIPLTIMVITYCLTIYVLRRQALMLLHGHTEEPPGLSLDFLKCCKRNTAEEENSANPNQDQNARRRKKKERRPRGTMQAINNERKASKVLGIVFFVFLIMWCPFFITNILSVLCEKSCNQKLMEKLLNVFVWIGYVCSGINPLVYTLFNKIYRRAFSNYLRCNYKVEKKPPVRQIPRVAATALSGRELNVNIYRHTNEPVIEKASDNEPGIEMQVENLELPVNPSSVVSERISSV
In words: Agonist activity at recombinant human 5HT2C-INI receptor expressed in Flp-In-293 cells assessed as calcium flux by FLIPR assay. In general terms: Calcium flux is commonly read through the fluorescence of an indicator in the cells.

Experiment [2] deals with 5-hydroxytryptamine receptor 2B (Homo sapiens, UniProt P41595). In words: Agonist activity at recombinant human 5HT2B receptor expressed in Flp-In-293 cells assessed as calcium flux by FLIPR assay.
Chain of 5-hydroxytryptamine receptor 2B (P41595 whole entry): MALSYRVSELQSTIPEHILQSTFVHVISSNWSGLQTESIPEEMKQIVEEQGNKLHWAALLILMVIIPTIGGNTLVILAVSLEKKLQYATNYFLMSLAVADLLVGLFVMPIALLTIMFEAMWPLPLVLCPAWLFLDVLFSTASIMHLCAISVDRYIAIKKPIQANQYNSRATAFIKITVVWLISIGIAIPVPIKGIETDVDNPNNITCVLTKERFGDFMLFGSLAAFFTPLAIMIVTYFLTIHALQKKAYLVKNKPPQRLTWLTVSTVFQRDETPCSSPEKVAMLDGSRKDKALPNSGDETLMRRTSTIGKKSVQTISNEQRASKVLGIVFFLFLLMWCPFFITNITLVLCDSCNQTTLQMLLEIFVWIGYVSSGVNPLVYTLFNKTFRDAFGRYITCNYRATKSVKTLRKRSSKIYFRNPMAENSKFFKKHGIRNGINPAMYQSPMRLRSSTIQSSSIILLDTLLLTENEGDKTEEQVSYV

Take `NCC1CC1c1cc(Cl)c(F)cc1OCCF` (stereo unspecified): the EC50 (as a rule, the concentration needed to bring the measured effect to its halfway point) in experiment [1] was 0.776 µM.

Take `C=CCOc1cc(F)c(Cl)cc1C1CC1CN` (stereo unspecified): the values for the EC50 in experiment [2] and in experiment [1] were 1.95 µM and 0.308 µM, respectively.

With `COc1cc(Cl)c(Cl)cc1C1CC1CN` (stereo unspecified), the concentration for a half-maximal effect (EC50) in experiment [1] turned out to be 0.013 µM.

With `COc1ccc(Cl)c(Cl)c1C1CC1CN` (stereo unspecified), the EC50 in experiment [1] was 0.0011 µM.

`COc1ccc(F)c(F)c1C1CC1CN` (stereo unspecified): the EC50 in experiment [1] amounted to 0.015 µM.

On to `NCC1CC1c1c(OCCF)ccc(F)c1F` (stereo unspecified), for which, in experiment [1], the EC50 was 0.509 µM.

`NCC1CC1c1c(OCCF)ccc(Cl)c1F` (stereo unspecified): the EC50 in experiment [1] came to 0.386 µM.

Take `NCC1CC1c1c(OCCF)ccc(Cl)c1Cl` (stereo unspecified): in experiment [1], the EC50 turned out to be 0.234 µM.

Consider `C=CCOc1ccc(F)c(F)c1C1CC1CN` (stereo unspecified), for which, in experiment [1], the EC50 worked out at 0.151 µM.

`N[C@@H](Cc1c[nH]c2ccc(O)cc12)C(=O)O` [OXITRIPTAN]: the concentration giving a half-maximal response (EC50) in experiment [1] was 0.000219 µM.
